Measured values published in patent US8426448B2, “1,5-diphenyl-pyrrolidin-2-one compounds as CB-1 ligands” (Eli Lilly and Company, priority 2008, dated 2013).
Where a name gives a salt, the structure may show the parent alone.

How the values were obtained:
Dog oral bioavailability = type: in vivo; conditions: plasma; fasted female beagle dog; IV 0.25 mg/kg, PO 1 mg/kg; mean±s.d, n=2; based on AUC0-∞
Description: Cohorts of three or four 250-450 gram male Sprague-Dawley rats or approximately 10 kg Beagle dogs (female or male) are used. […] Dogs are administered i.v. by cannulated cephalic vein and blood collections are by jugular vein. Animals are first dosed at 0.25 mg/kg i.v. and blood samples (0.2 mL) are then collected using EDTA as an anticoagulant at 0.0830, 0.25, 0.50, 1, 2, 4, 8, 12, 24, 48, 72, 96, and 120 hours. Next after at least two days and after 18-24 hours fasting, the animals are dosed at 1.0 mg/kg by oral gavage. During the course of a study the total of blood (ml) collected is not to exceed 1% of total body weight in grams. Should larger blood volumes be required, the sampled blood volume is replace with heparinized whole blood from a donor animal. When using a cross-over study design, rats receive a volume of heparinized whole blood following the final sample of each study day approximately equal to that removed during study.
Compound plasma concentrations are measured by LC/MS/MS assays. Data are then analyzed using standard non-compartmental pharmacokinetic analysis. Oral bioavailability is calculated as: (AUC0-infinity,oral/AUC0-infinity,i.v.)×(Dose,i.v./Dose,oral)×100%

rCB-1 = biological target: T1, rCB-1 (Rattus norvegicus, UniProt P20272); experiment: rCB1-CHO antagonist mode SPA GTP-γ-35S binding assay; type: biochemical; conditions: antagonist mode vs methanandamide; read-out: rCB-1 SPA GTPγS CHO Membrane Antagonist Kb
T1 construct: purchased Applied Cell Sciences, Rockville, Md; host or cells: CHO cell membranes
T1 sequence (P20272 whole entry): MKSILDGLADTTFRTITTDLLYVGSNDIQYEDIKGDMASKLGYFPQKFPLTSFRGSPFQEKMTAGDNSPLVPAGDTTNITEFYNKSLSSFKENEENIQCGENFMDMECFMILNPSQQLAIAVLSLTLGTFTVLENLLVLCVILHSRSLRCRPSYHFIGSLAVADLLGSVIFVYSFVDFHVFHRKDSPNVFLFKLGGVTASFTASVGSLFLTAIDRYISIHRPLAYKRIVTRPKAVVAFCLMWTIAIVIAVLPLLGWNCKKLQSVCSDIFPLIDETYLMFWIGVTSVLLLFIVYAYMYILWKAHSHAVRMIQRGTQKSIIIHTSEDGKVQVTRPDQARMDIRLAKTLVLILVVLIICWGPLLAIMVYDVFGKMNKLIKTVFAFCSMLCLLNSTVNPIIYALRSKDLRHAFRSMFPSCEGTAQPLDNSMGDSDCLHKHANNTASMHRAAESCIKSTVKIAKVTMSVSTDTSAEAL
Description: Compounds of the present invention may be tested for functional activity at the CB-1 and CB-2 receptors in both agonist and antagonist modes using SPA (Scintillation Proximity Assay) based GTP-γ-^35S binding assays. All assay components are prepared in assay buffer (20 mM HEPES, 100 mM NaCl, 5 mM MgCl2, pH 7.4) at room temperature. Semi-log dilutions of test compound are prepared in assay buffer containing BSA (0.125% final conc.) for the agonist mode assays. For the antagonist mode assays, test compounds are prepared in the same manner but also include an 80% efficacious dose of a full agonist (methanandamide). GTP-γ^35S binding for the antagonist assay may be measured in a 96 well format using a modification of an antibody capture technique previously described. (DeLapp, N W, et al. (1999) J Pharmacol Exp Ther 289:946-955.) The CB-2 receptor agonist activity may be measured using a similar method using hCB2-Sf9 membranes. The CB-1 receptor agonist activity may be measured using a whole membrane capture technique using hCB1-CHO membranes. All incubations are done at room temperature.
hCB1-CHO or rCB1-CHO membranes (Applied Cell Sciences, Rockville, Md.) and GDP (1 μM final) are added to ice cold assay buffer and homogenized. […] Plates are then centrifuged at 700×g for 10 min. and the radioactivity counted.
Data are analyzed as follows: Background is subtracted from all wells. […] Percent antagonist inhibition is calculated by first normalizing the data to the signal generated by a saturating concentration of the full agonist (methanandamide). Then the data are analyzed using a 4-parameter logistic reduced fit (Activity Base™ and XLFit3™ from IDBS, Emeryville, Calif.). Kb values are determined using a modification of the Cheng-Prusoff relationship: Kb=IC50/(1+[agonist]/EC50), where “IC50” is determined from a four parameter fit of displacement curves, “[agonist]” is the agonist challenge concentration (nM), and “EC50” is determined from a four parameter fit of a full agonist concentration response curve (Cheng and Prusoff 1973). […]

CYP2C9 = biological target: T2, CYP2C9 (Homo sapiens, UniProt P11712); experiment: Human CYP fingerprinting, sulfaphenazole inhibition; type: in vitro ADME; conditions: 4 μM, human liver microsomes, 30 min, 5 μM sulfaphenazole
T2 construct: pooled, mixed gender, human liver microsomes; from tissue; host or cells: pooled, mixed gender human liver microsomes
T2 sequence (P11712 whole entry): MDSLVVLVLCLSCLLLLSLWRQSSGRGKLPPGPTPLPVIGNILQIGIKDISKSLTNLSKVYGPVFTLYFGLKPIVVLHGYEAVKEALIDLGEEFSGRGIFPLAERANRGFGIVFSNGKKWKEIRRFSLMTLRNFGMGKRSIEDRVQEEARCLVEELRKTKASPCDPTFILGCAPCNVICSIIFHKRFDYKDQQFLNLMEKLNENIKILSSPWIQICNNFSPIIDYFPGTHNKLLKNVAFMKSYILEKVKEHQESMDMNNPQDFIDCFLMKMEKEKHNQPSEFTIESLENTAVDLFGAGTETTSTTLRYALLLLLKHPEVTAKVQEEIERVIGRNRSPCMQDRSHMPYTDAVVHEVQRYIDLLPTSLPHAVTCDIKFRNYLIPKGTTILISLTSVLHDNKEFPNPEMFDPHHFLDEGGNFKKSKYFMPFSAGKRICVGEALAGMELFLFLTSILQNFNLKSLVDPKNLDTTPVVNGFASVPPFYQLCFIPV
Description: CYP fingerprinting is well established technique and is used as an indication of potential risk of drug-drug interactions in the pharmaceutical sciences. Compounds of the present invention may be assayed by well known methods, essentially as follows: Compounds are incubated at 37° C. at a final concentration of 4 μM with pooled, mixed gender, human liver microsomes and 1 mM NADPH (Nicotine Adenine Dinucleotide Phosphate) (final conc.) for 0 and 30 min. without any CYP inhibitor and with each CYP inhibitor in separate incubations for 30 min. Each inhibitor is specific for an individual cytochrome P450. The specific inhibitors used for CYPs 2C9, 2D6 and 3A were sulfaphenazole, quinidine and ketoconazole, respectively. Ketoconazole (CYP3A) is made up at 25 mM in DMSO and then diluted in buffer to a final concentration of 10 μM. Quinidine (CYP2D6) is made up at 5 mM in 50/50 acetonitrile/water and then diluted in buffer to a final concentration of 10 μM. Sulfaphenazole (CYP2C9) is made up at 100 mM in DMSO and then diluted in buffer to a final concentration of 5 μM. Samples are analyzed by LC-MS in positive or negative electrospray mode using a Waters Acquity Ultra Performance LC coupled to a MicroMass Q-T of-2 mass spectrometer.
Data are analyzed using MetaboLynx™ version 4.1. […]

bioavailability (Dog oral bioavailability): 32 ± 18%
Kb (rCB-1): 0.196 nM
SMILES: CC(C)(N[C@@H]1C[C@H](c2cccc(C(F)(F)F)c2)N(c2ccc(OC(F)(F)F)cc2)C1=O)c1cccc(C(F)(F)F)n1 [28 HCl salt, (3R,5R)-3-[1-methyl-1-(6-trifluoromethyl-pyridin-2-yl)-ethylamino]-1-(4-trifluoromethoxy-phenyl)-5-(3-trifluoromethyl-phenyl)-pyrrolidin-2-one]
Risk of Drug Drug Interaction (DDI) CYP2C9 (CYP2C9): low (a reduction in metabolite peak area of less than 30% (relative to the uninhibited control incubation) receives a designation of low risk of Drug Drug Interaction (DDI))
